{"source": "patent US6835382B2", "about": "“Ii peptide therapeutics to enhance antigen presentation” (University of Massachusetts, priority 1996, dated 2004)", "key": {"HLA-DR1 molecules [1]": {"tested_on": "HLA-DR1 molecules", "assay": "release of biotin-labeled hMBP(90-102) from HLA-DR1 without unlabeled antigenic peptide (assay I)", "type": "binding, human", "settings": "for Relative Release, Without unlabeled hMBP(90-102), 1 μM / Relative Release, Without unlabeled hMBP(90-102), 64 μM: Table 37, no unlabeled hMBP(90-102); for Relative Release, Without unlabeled hMBP(90-102), 1 μM: AE101 series compound 1 μM; for Relative Release, Without unlabeled hMBP(90-102), 64 μM / Relative Release: AE101 series compound 64 μM; for Relative Release: Table 36, fraction of o.d. of positive control (PBS only = 1.0; negative control = 0.0)"}, "HLA-DR1 molecules [2]": {"tested_on": "HLA-DR1 molecules", "assay": "exchange of biotinylated hMBP(90-102) into antigenic peptide-loaded HLA-DR1 (assay III)", "type": "binding, human", "settings": "Table 38; HLA-DR1 preloaded with unlabeled hMBP(90-102) 50 μM; exchange with biotin-labeled hMBP(90-102) 50 μM, 37° C., 1 h; fraction of positive control o.d.; no enhancement = 0.08"}, "[3]": {"tested_on": "murine E^k MHC class II allele", "assay": "AE101 series peptide prepulse assay, E^k allele", "type": "cell-based", "settings": "Table 35; AE101 series peptide prepulse 64 μM; antigenic peptide 0.4 μM; supernatant dilution 1:2", "experimental": "(§1) Table 35: Activities of multiple substitution analogs of AE235, targeting the E^k and E^d allele, in an AE101 series peptide prepulse assay. In this assay the concentration of AE101 series peptides used during the prepulse was 64 μM. The concentrations of antigenic peptides were 0.3 μM for Ed and 0.4 μM for E^k. The supernatant dilutions taken into the HT-2 cell assay was 1:4 for E and 1:2 for E^k. The AE381 peptide is a head-to-tail cyclization: the amino terminal amino group is coupled through an amide linkage to the carboxyl terminal group. The AE 382 peptide is a side-to-tail cyclization: the epsilon amino group of Lys^4 is coupled through an amide linkage to the carboxyl terminal group.\n(§2) AE101 series peptide prepulse assays were carried out in the E^d and E^k systems as described for simultaneous competition assays with the following modifications. Fixed APC were first incubated for 6 h at 1×10^6DMEM-5% FCS with 64 μM of each AE101 series peptide or with PBS. The APC were then washed four times with ten volumes of DMEM-5% FCS, and were cocultured with T hybridoma cells and the indicated submaximal doses of antigenic peptides used in the simultaneous competition assays. The baseline T cell response was measured by culturing T hybridoma cells with antigenic peptide and PBS-pretreated APC."}, "HLA-DR1 molecules [4]": {"molecular_target": "T1, HLA-DR1 molecules (Homo sapiens, UniProt P01903+P01911, A100R/D57E/F55L/F60I/F76Y/I96L/L162R/M171V/P40L/Q125E/R42F/V115G/Y59C)", "T1 construct": "The HLA-DR alpha gene was truncated after Asn^192 to remove transmembranal and cytoplasmic regions from the protein product; A gene coding for the HLA-DR1 beta chain was truncated after position Lys^198, again to delete the transmembranal region; made in house; host or cells: insect cell line printed as HS / H5 (Invitrogen), co-infected with two baculoviruses; concentrated culture supernatant captured on 12CA5 antibody", "assay": "binding of biotin-labeled hMBP(90-102) to \"empty\" HLA-DR1 (assay IV)", "settings": "Table 39; AE101 series compound 64 μM; biotin-labeled hMBP(90-102) 50 μM, 37° C., 1 h; no enhancement = 1"}, "[5]": {"molecular_target": "T2, murine E^d MHC class II allele (Mus musculus, UniProt P01904+P01915)", "T2 sequence (P01904 26-255)": "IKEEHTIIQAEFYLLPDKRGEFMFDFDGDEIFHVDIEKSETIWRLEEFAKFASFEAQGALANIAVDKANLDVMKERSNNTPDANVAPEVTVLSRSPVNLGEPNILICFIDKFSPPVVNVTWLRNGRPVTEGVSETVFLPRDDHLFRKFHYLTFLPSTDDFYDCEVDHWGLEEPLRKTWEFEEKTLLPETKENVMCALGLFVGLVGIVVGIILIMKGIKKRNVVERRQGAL", "T2 sequence (P01915 27-264 limits assumed)": "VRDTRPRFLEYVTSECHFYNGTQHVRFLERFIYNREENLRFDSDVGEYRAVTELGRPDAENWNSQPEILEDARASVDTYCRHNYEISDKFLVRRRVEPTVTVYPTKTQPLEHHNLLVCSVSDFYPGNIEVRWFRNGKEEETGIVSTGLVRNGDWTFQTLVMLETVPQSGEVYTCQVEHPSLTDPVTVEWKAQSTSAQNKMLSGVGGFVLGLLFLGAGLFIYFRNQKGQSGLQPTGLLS", "assay": "AE101 series peptide prepulse assay, E^d allele", "type": "cell-based", "settings": "Table 35; AE101 series peptide prepulse 64 μM; antigenic peptide 0.3 μM; supernatant dilution 1:4", "experimental": "as §1, §2"}}, "note": "Non-standard residues stand in square brackets, D forms with d."}
{"substance": "Ac-LR L KLPK-NH2 (Ac-LRLKLPK-NH2; not fully specified; printed as Ac-LR L KLPK-NH2) [AE206]", "values": [{"measurement": "Relative Release, Without unlabeled hMBP(90-102), 1 μM", "setting": "HLA-DR1 molecules [1]", "result": 0.58}, {"measurement": "Relative Release, Without unlabeled hMBP(90-102), 64 μM", "setting": "HLA-DR1 molecules [1]", "result": 0.08}, {"measurement": "Relative Binding", "setting": "HLA-DR1 molecules [2]", "result": "−0.13"}, {"measurement": "T cell response relative to baseline with PBS-pretreated APC (NONE = 1.0), E^k", "setting": "[3]", "result": 2.7}, {"measurement": "Relative Enhancement", "setting": "HLA-DR1 molecules [4]", "result": 2.57}, {"measurement": "T cell response relative to baseline with PBS-pretreated APC (NONE = 1.0), E^d", "setting": "[5]", "result": 5.0}]}
{"substance": "Ac-LRMK D PK-NH2 (Ac-LRMKDPK-NH2) [AE230]", "values": [{"measurement": "T cell response relative to baseline with PBS-pretreated APC (NONE = 1.0), E^k", "setting": "[3]", "result": 1.6}, {"measurement": "T cell response relative to baseline with PBS-pretreated APC (NONE = 1.0), E^d", "setting": "[5]", "result": 0.8}]}
{"substance": "Ac-LRMK Y PK-NH2 (Ac-LRMKYPK-NH2; not fully specified; printed as Ac-LRMK Y PK-NH2) [AE235]", "values": [{"measurement": "release of biotin-labeled hMBP(90-102) from HLA-DR1 without second unlabeled antigenic peptide, in words", "setting": "HLA-DR1 molecules [1]; Table 36 (compounds tested at 64 μM)", "result": "did not release"}, {"measurement": "Relative Release", "setting": "HLA-DR1 molecules [1]", "result": 0.79}, {"measurement": "Relative Release, Without unlabeled hMBP(90-102), 1 μM", "setting": "HLA-DR1 molecules [1]", "result": 1.05}, {"measurement": "Relative Release, Without unlabeled hMBP(90-102), 64 μM", "setting": "HLA-DR1 molecules [1]", "result": 0.81}, {"measurement": "Relative Binding", "setting": "HLA-DR1 molecules [2]", "result": 0.15}, {"measurement": "T cell response relative to baseline with PBS-pretreated APC (NONE = 1.0), E^k", "setting": "[3]", "result": 2.1}, {"measurement": "Relative Enhancement", "setting": "HLA-DR1 molecules [4]", "result": 0.61}, {"measurement": "T cell response relative to baseline with PBS-pretreated APC (NONE = 1.0), E^d", "setting": "[5]", "result": 15.6}]}
{"substance": "Ac-LRMKLPK-NH2 [AE114]", "values": [{"measurement": "T cell response relative to baseline with PBS-pretreated APC (NONE = 1.0), E^k", "setting": "[3]", "result": 2.0}, {"measurement": "T cell response relative to baseline with PBS-pretreated APC (NONE = 1.0), E^d", "setting": "[5]", "result": 6.0}]}
{"substance": "Ac-YRMK-NH2 [AE117]", "values": [{"measurement": "T cell response relative to baseline with PBS-pretreated APC (NONE = 1.0), E^k", "setting": "[3]", "result": 2.3}, {"measurement": "T cell response relative to baseline with PBS-pretreated APC (NONE = 1.0), E^d", "setting": "[5]", "result": 4.4}]}
{"substance": "Ac-YRMKL hydrP KSAK-NH2 (Ac-YRMKL[hydrP]KSAK-NH2) [AE143]", "values": [{"measurement": "Relative Release, Without unlabeled hMBP(90-102), 1 μM", "setting": "HLA-DR1 molecules [1]", "result": 0.51}, {"measurement": "Relative Release, Without unlabeled hMBP(90-102), 64 μM", "setting": "HLA-DR1 molecules [1]", "result": 0.58}]}
{"substance": "YRMKLPKSAKPVSQMR [AE101]", "values": [{"measurement": "release of hMBP(90-102) from HLA-DR1", "setting": "HLA-DR1 molecules [1]; AE peptide at 125 nM, additional experiments", "result": "completely release"}, {"measurement": "release of biotin-labeled hMBP(90-102) (Relative Release)", "setting": "HLA-DR1 molecules [1]; AE peptide at 1 μM without unlabeled hMBP(90-102)", "result": 0.02}, {"measurement": "Relative Release", "setting": "HLA-DR1 molecules [1]", "result": "−0.33"}, {"measurement": "Relative Binding", "setting": "HLA-DR1 molecules [2]", "result": 0.31}, {"measurement": "Relative Enhancement", "setting": "HLA-DR1 molecules [4]", "result": 2.66}]}
